Measured values reported in the Kinase Knowledgebase extract (Sharma et al. 2016).

biological target: ROCK2 (human) (UniProt O75116); experiment: Inhibition of ROCK2 Kinase Activity
Sequence (O75116 whole entry, looked up): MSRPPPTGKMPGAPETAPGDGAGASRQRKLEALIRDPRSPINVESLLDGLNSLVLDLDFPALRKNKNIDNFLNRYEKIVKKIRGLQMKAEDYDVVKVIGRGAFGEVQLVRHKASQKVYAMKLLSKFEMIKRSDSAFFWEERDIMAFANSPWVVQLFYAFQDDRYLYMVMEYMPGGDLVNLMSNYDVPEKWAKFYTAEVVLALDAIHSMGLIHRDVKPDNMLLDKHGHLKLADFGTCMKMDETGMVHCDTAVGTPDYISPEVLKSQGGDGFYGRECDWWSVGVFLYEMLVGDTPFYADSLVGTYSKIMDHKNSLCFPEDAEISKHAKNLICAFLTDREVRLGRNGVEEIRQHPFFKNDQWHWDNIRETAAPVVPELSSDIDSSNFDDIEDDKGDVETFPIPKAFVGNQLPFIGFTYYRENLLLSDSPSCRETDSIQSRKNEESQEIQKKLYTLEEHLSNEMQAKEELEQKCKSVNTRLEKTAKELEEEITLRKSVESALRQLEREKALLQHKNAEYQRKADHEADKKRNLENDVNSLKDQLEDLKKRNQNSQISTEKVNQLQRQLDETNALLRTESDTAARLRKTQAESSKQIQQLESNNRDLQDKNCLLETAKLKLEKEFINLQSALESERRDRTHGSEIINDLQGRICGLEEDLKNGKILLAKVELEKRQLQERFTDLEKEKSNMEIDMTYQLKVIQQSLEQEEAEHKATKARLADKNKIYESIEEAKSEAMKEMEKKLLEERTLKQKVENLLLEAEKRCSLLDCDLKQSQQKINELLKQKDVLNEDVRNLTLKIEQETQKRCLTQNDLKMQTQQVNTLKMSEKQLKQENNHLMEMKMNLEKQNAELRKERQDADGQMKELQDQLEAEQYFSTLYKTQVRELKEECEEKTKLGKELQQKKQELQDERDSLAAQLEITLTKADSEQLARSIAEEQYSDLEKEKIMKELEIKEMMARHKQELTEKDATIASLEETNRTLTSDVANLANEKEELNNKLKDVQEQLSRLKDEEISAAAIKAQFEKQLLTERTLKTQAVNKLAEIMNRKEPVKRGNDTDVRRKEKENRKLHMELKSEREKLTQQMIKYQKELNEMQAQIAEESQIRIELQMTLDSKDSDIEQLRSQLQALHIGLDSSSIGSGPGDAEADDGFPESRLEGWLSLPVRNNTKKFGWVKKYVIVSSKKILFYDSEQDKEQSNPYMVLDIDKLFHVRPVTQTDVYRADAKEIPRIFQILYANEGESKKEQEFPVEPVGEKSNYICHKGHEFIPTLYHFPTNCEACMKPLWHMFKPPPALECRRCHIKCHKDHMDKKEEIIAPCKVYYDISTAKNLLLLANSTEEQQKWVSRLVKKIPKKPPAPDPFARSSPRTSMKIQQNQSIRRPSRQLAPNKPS

Structure (SMILES)	IC50
CC(=O)Nc1cccc(C(=O)NCc2nc(-c3ccncc3)n[nH]2)c1	> 5 µM
O=C(NCc1nc(-c2c[nH]c3ncccc23)n[nH]1)C(Cl)(Cl)Cl	> 5 µM
CC(C(=O)NCc1nc(-c2ccncc2)n[nH]1)c1cccc(C(=O)c2ccccc2)c1 (configuration not stated)	> 5 µM
O=C(NCc1nc(-c2c[nH]c3ncccc23)n[nH]1)c1cc(O)ccc1[N+](=O)[O-]	> 5 µM
CC(C)(C)OC(=O)N1Cc2ccccc2CC1C(=O)NCc1nc(-c2ccncc2)n[nH]1 (configuration not stated)	> 5 µM
O=C(NCc1nc(-c2ccncc2)n[nH]1)c1ccc2ncccc2c1	> 5 µM
CCc1ccc(C(=O)NCc2nc(-c3c[nH]c4ncccc34)n[nH]2)cc1	> 5 µM
COc1ccc(C(=O)NCc2nc(-c3c[nH]c4ncccc34)n[nH]2)c(OC)c1OC	> 5 µM
CC(C)C(NC(=O)OC(C)(C)C)C(=O)NCc1nc(-c2ccncc2)n[nH]1 (configuration not stated)	> 5 µM
Cc1ccccc1CCC(=O)NCc1nc(-c2c[nH]c3ncccc23)n[nH]1	> 5 µM
O=C(NCc1nc(-c2ccncc2)n[nH]1)c1ccc(Oc2ccccc2)cc1	≤ 5 µM
O=C(NCc1nc(-c2ccncc2)n[nH]1)c1cccc(Br)n1	> 5 µM
Cc1ccc(O)c(C(=O)NCc2nc(-c3c[nH]c4ncccc34)n[nH]2)c1	> 5 µM
Cc1ccc(C(=O)NCc2nc(-c3ccncc3)n[nH]2)c(O)c1	≤ 5 µM
Cc1ccc(C(=O)NCc2nc(-c3ccncc3)n[nH]2)cc1F	> 5 µM
O=C(NCc1nc(-c2c[nH]c3ncccc23)n[nH]1)c1c(Cl)cc(Cl)cc1Cl	> 5 µM
Cc1ccc(C(=O)NCc2nc(-c3c[nH]c4ncccc34)n[nH]2)c(C)c1	> 5 µM
COC(=O)c1ccc(C(=O)NCc2nc(-c3ccncc3)n[nH]2)cc1	≤ 5 µM
O=C(NCc1nc(-c2c[nH]c3ncccc23)n[nH]1)c1cccs1	≤ 5 µM
O=C(NCc1nc(-c2ccncc2)n[nH]1)c1ccccc1OCc1ccccc1	> 5 µM
Cc1cc(C(=O)NCc2nc(-c3c[nH]c4ncccc34)n[nH]2)ccc1Br	> 5 µM
O=C(NCc1nc(-c2c[nH]c3ncccc23)n[nH]1)c1cc(Cl)ccn1	> 5 µM

Structure (SMILES)	IC50
O=C(NCc1nc(-c2ccncc2)n[nH]1)C1CCCN1C(=O)OCc1ccccc1 (configuration not stated)	> 5 µM
Cc1cccc(CCC(=O)NCc2nc(-c3ccncc3)n[nH]2)c1	> 5 µM
COc1ccc(C=CC(=O)NCc2nc(-c3ccncc3)n[nH]2)cc1O	> 5 µM
CC(C(=O)NCc1nc(-c2c[nH]c3ncccc23)n[nH]1)c1ccc(-c2ccccc2)c(F)c1 (configuration not stated)	> 5 µM
CC(=O)Oc1ccc(C(=O)NCc2nc(-c3ccncc3)n[nH]2)c(O)c1	≤ 5 µM
COc1ccc(C(=O)NCc2nc(-c3ccncc3)n[nH]2)cc1	≤ 5 µM
O=C(NCc1nc(-c2ccncc2)n[nH]1)c1cc(F)c(F)c(O)c1F	> 5 µM
Cc1cc(C(=O)NCc2nc(-c3c[nH]c4ncccc34)n[nH]2)cc(Cl)n1	> 5 µM
CC(C)(C)OC(=O)NCC(=O)NCc1nc(-c2c[nH]c3ncccc23)n[nH]1	> 5 µM
O=C(NCc1nc(-c2c[nH]c3ncccc23)n[nH]1)c1cc(Cl)ccc1O	> 5 µM
O=C(NCc1nc(-c2ccncc2)n[nH]1)c1ccc(O)cc1O	≤ 5 µM
O=C(NCc1nc(-c2ccncc2)no1)c1cccs1	> 5 µM
O=C(NCc1nc(-c2ccncc2)n[nH]1)c1cc([N+](=O)[O-])ccc1Cl	> 5 µM
O=C(NCc1nc(-c2ccncc2)n[nH]1)c1cscn1	> 5 µM
Cc1ccccc1C(=O)NCc1nc(-c2c[nH]c3ncccc23)n[nH]1	> 5 µM
COc1cccc(C(=O)NCc2nc(-c3ccncc3)n[nH]2)c1	> 5 µM
CC(C)C(C(=O)NCc1nc(-c2c[nH]c3ncccc23)n[nH]1)N(C)C(=O)OC(C)(C)C (configuration not stated)	> 5 µM
O=C(NCc1nc(-c2c[nH]c3ncccc23)n[nH]1)c1cccc(I)c1	> 5 µM
CC(=O)c1cccc(C(=O)NCc2nc(-c3c[nH]c4ncccc34)n[nH]2)c1	> 5 µM
CC(=O)Oc1cccc(C(=O)NCc2nc(-c3c[nH]c4ncccc34)n[nH]2)c1	> 5 µM
CCOc1ccc2ccccc2c1C(=O)NCc1nc(-c2c[nH]c3ncccc23)n[nH]1	> 5 µM
CCCCCCCC(=O)NCc1nc(-c2c[nH]c3ncccc23)n[nH]1	> 5 µM

Structure (SMILES)	IC50
O=C(CCc1ccccc1Br)NCc1nc(-c2c[nH]c3ncccc23)n[nH]1	> 5 µM
O=C(NCc1nc(-c2ccncc2)n[nH]1)C1CCCO1 (configuration not stated)	> 5 µM
O=C(C=Cc1ccc2c(c1)OCO2)NCc1nc(-c2ccncc2)n[nH]1	> 5 µM
COc1cc(C(=O)NCc2nc(-c3c[nH]c4ncccc34)n[nH]2)cc(OC)c1OC	> 5 µM
CN(Cc1nc(-c2ccncc2)n[nH]1)C(=O)c1cccs1	> 5 µM
COc1cc(OC)c(C(=O)NCc2nc(-c3ccncc3)n[nH]2)cc1OC	> 5 µM
COc1ccc(C(=O)NCc2nc(-c3ccncc3)no2)cc1	> 5 µM
CC(NC(=O)c1cccs1)c1nc(-c2ccncc2)n[nH]1 (configuration not stated)	≤ 5 µM
CC(C)C(NC(=O)OC(C)(C)C)C(=O)NCc1nc(-c2c[nH]c3ncccc23)n[nH]1 (configuration not stated)	> 5 µM
COC(=O)c1ccc(C(=O)NCc2nc(-c3c[nH]c4ncccc34)n[nH]2)cc1	> 5 µM
CCOc1ccccc1C(=O)NCc1nc(-c2ccncc2)n[nH]1	> 5 µM
N#Cc1ccc(C(=O)NCc2nc(-c3ccncc3)n[nH]2)cc1	> 5 µM
CC(C)(C)OC(=O)NC(Cc1ccccn1)C(=O)NCc1nc(-c2c[nH]c3ncccc23)n[nH]1 (configuration not stated)	> 5 µM
O=C(NCc1nc(-c2ccncc2)n[nH]1)c1ccc(Oc2cccc(O)c2)cc1	≤ 5 µM
NC(=O)c1cc(-c2ccncc2)n[nH]1	> 5 µM
O=C(NCc1nc(-c2c[nH]c3ncccc23)n[nH]1)c1ccc(Cl)cc1O	> 5 µM
O=C(NCc1nc(-c2c[nH]c3ncccc23)n[nH]1)c1ccc2ccccc2c1O	> 5 µM
O=C(CCc1nc2ccccc2[nH]1)NCc1nc(-c2c[nH]c3ncccc23)n[nH]1	> 5 µM
O=C(NCc1nc(-c2ccncc2)n[nH]1)c1ccc(Cl)c(Br)c1	> 5 µM
O=C(c1cccs1)N1CCCC1c1nc(-c2ccncc2)n[nH]1 (configuration not stated)	> 5 µM
O=C(NCc1nc(-c2ccncc2)n[nH]1)c1ccc(Cl)cc1O	> 5 µM
O=C(NCc1nc(-c2c[nH]c3ncccc23)n[nH]1)C1=C(O)CC=CC([N+](=O)[O-])=C1	> 5 µM

Structure (SMILES)	IC50
CC(C)(C)OC(=O)N1CCCC1C(=O)NCc1nc(-c2ccncc2)n[nH]1 (configuration not stated)	> 5 µM
O=C(NCc1nc(-c2c[nH]c3ncccc23)n[nH]1)c1cc(O)ccc1O	> 5 µM
Cc1ccc(F)cc1C(=O)NCc1nc(-c2ccncc2)n[nH]1	> 5 µM
CC(C)c1cccc(C(=O)NCc2nc(-c3ccncc3)n[nH]2)c1O	≤ 5 µM
Cc1cccc(C(=O)NCc2nc(-c3ccncc3)n[nH]2)c1[N+](=O)[O-]	> 5 µM
CCC(C(=O)NCc1nc(-c2c[nH]c3ncccc23)n[nH]1)c1ccccc1 (configuration not stated)	> 5 µM
O=C(C=Cc1ccc2c(c1)OCO2)NCc1nc(-c2c[nH]c3ncccc23)n[nH]1	> 5 µM
CC(CC(=O)NCc1nc(-c2ccncc2)n[nH]1)CC(C)(C)C (configuration not stated)	> 5 µM
c1ccc(COc2ccc(CNCc3nc(-c4ccncc4)n[nH]3)cc2)cc1	> 5 µM
O=C(NCc1nc(-c2ccncc2)n[nH]1)c1cccc([N+](=O)[O-])c1	> 5 µM
Cc1cccc(C(=O)NCc2cc(-c3ccncc3)n[nH]2)c1O	≤ 5 µM
O=C(NCc1nc(-c2c[nH]c3ncccc23)n[nH]1)c1ccc2cccc(O)c2n1	> 5 µM
CC(C)CC(=O)NCc1nc(-c2c[nH]c3ncccc23)n[nH]1	> 5 µM
O=C(NCc1nc(-c2ccncc2)n[nH]1)c1cccc(Cl)c1[N+](=O)[O-]	≤ 5 µM
CC(=O)Oc1cccc(C(=O)NCc2nc(-c3ccncc3)n[nH]2)c1	> 5 µM
COc1cc(OC)c(C(=O)NCc2nc(-c3c[nH]c4ncccc34)n[nH]2)c(OC)c1	> 5 µM
O=C(NCc1nc(-c2c[nH]c3ncccc23)n[nH]1)c1ccccc1C(=O)c1ccc(F)cc1	> 5 µM
CCOC(=O)CC(=O)NCc1nc(-c2c[nH]c3ncccc23)n[nH]1	> 5 µM
O=C(NCc1nc(-c2c[nH]c3ncccc23)n[nH]1)C1CCCCC1	> 5 µM
Cc1ccc(O)c(C(=O)NCc2nc(-c3ccncc3)n[nH]2)c1	> 5 µM
O=CC(=O)NCc1nc(-c2c[nH]c3ncccc23)n[nH]1	> 5 µM
COc1cccc(OC)c1C(=O)NCc1nc(-c2c[nH]c3ncccc23)n[nH]1	> 5 µM

Structure (SMILES)	IC50
COc1cc(C=CC(=O)NCc2nc(-c3c[nH]c4ncccc34)n[nH]2)ccc1O	> 5 µM
COc1ccccc1C=CC(=O)NCc1nc(-c2ccncc2)n[nH]1	> 5 µM
CC(=O)NC(Cc1ccc(O)cc1)C(=O)NCc1nc(-c2c[nH]c3ncccc23)n[nH]1 (configuration not stated)	> 5 µM
CC(C)C(C(=O)NCc1nc(-c2ccncc2)n[nH]1)N(C)C(=O)OC(C)(C)C (configuration not stated)	> 5 µM
Cc1ccc(C(=O)NCc2nc(-c3c[nH]c4ncccc34)n[nH]2)cc1F	> 5 µM
CC(C)(C)c1ccc(C(=O)NCc2nc(-c3ccncc3)n[nH]2)cc1	> 5 µM
O=C(NCc1nc(-c2c[nH]c3ncccc23)n[nH]1)c1ccccc1-c1ccccc1	> 5 µM
O=C(NCc1nc(-c2c[nH]c3ncccc23)n[nH]1)c1c2ccccc2cc2ccccc12	> 5 µM
O=C(NCc1nc(-c2c[nH]c3ncccc23)n[nH]1)c1ccc(Cl)cc1[N+](=O)[O-]	> 5 µM
O=C(NCc1nc(-c2ccncc2)n[nH]1)c1cccc(F)c1F	> 5 µM
CCCCc1ccc(C(=O)NCc2nc(-c3c[nH]c4ncccc34)n[nH]2)cc1	> 5 µM
O=C(C=Cc1ccccc1O)NCc1nc(-c2ccncc2)n[nH]1	> 5 µM
c1ccc2c(NCc3nc(-c4ccncc4)n[nH]3)ncnc2c1	> 5 µM
O=C(Cc1cccc(O)c1)NCc1nc(-c2c[nH]c3ncccc23)n[nH]1	> 5 µM
O=C(NCc1nc(-c2ccncc2)n[nH]1)c1cc(O)ccc1[N+](=O)[O-]	> 5 µM
O=C(C=Cc1cccc(O)c1)NCc1nc(-c2ccncc2)n[nH]1	> 5 µM
O=C(NCc1nc(-c2c[nH]c3ncccc23)n[nH]1)c1ccc([N+](=O)[O-])cc1Cl	> 5 µM
O=C(NCc1nc(-c2c[nH]c3ncccc23)n[nH]1)c1ccc(F)cc1F	> 5 µM
O=C(NCc1nc(-c2c[nH]c3ncccc23)n[nH]1)c1cc(F)c(Cl)cc1F	> 5 µM
